Measurements from PubChem BioAssay (NCI).
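Five compound concentrations were applied to cells in 96-well plates for 48 hours; endpoints were derived by simple linear interpolation of the resulting dose-response curve. Definition used: TGI = concentration required for complete inhibition of growth.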

Columns and labels:
Assay in all cases: NCI-60 cell line screen, 48 h
[1] = test system: NCI-H23 lung
[2] = test system: NCI-H460 lung
[3] = test system: COLO 205 colon
[4] = test system: OVCAR-8 ovarian
[5] = test system: ACHN renal
[6] = test system: M14 melanoma
[7] = test system: MCF7 breast
[8] = test system: HS 578T breast
[9] = test system: OVCAR-4 ovarian
[10] = test system: HOP-62 NSCLC
[11] = test system: CAKI-1 renal
[12] = test system: A549 NSCLC
[13] = test system: SK-MEL-5 melanoma
[14] = test system: MDA-N
[15] = test system: HT29 colon
[16] = test system: SW-620 colon
[17] = test system: RPMI-8226 leukemia
[18] = test system: HCT-116 colon
[19] = test system: BT-549 breast
[20] = test system: SF-295 CNS
[21] = test system: PC-3 prostate
[22] = test system: EKVX NSCLC
[23] = test system: SK-MEL-2 melanoma
[24] = test system: K-562 leukemia
[25] = test system: DU-145 prostate
[26] = test system: NCI-H522 lung
[27] = test system: NCI/ADR-RES ovarian
[28] = test system: MDA-MB-435
[29] = test system: SN12C renal
[30] = test system: SNB-75 CNS
[31] = test system: SF-539 CNS
[32] = test system: LOX IMVI melanoma
[33] = test system: TK-10 renal
[34] = test system: UO-31 renal
[35] = test system: NCI-H226 lung
[36] = test system: SNB-19 CNS
[37] = test system: KM12 colon
[38] = test system: UACC-257 melanoma
[39] = test system: HCT-15 colon
[40] = test system: SK-MEL-28 melanoma
[41] = test system: MDA-MB-231 breast
[42] = test system: MOLT-4 leukemia
[43] = test system: T-47D breast
[44] = test system: SR leukemia
[45] = test system: A498 renal
[46] = test system: 786-0 renal
[47] = test system: CCRF-CEM leukemia
[48] = test system: OVCAR-5 ovarian
[49] = test system: HL-60(TB) leukemia
[50] = test system: OVCAR-3 ovarian
[51] = test system: MALME-3M melanoma
[52] = test system: HOP-92 NSCLC
[53] = test system: U251 CNS
[54] = test system: SF-268 CNS
[55] = test system: UACC-62 melanoma
[56] = test system: HCC-2998 colon
[57] = test system: IGROV1 ovarian
[58] = test system: RXF 393 renal

CC(C)C(=O)OCN(C)c1nc(N(C)COC(=O)C(C)C)nc(N(C)COC(=O)C(C)C)n1
TGI [1]: 41.2 µM | TGI [2]: 54.2 µM | TGI [3]: 51.3 µM | TGI [4]: 45.5 µM | TGI [5]: 99.6 µM | TGI [6]: 33 µM | TGI [7]: > 100 µM | TGI [8]: 49.1 µM | TGI [9]: 58.3 µM | TGI [10]: > 100 µM | TGI [11]: > 100 µM | TGI [12]: > 100 µM | TGI [13]: 28.4 µM | TGI [14]: 46.2 µM | TGI [15]: 66.3 µM | TGI [16]: 89.6 µM | TGI [17]: > 100 µM | TGI [18]: > 100 µM | TGI [19]: 46.2 µM | TGI [20]: 93.2 µM | TGI [21]: > 100 µM | TGI [22]: > 100 µM | TGI [23]: 49.8 µM | TGI [24]: > 100 µM | TGI [25]: > 100 µM | TGI [26]: 36 µM | TGI [27]: > 100 µM | TGI [28]: 32.2 µM | TGI [29]: > 100 µM | TGI [30]: 61.9 µM | TGI [31]: 53.9 µM | TGI [32]: 39.1 µM | TGI [33]: > 100 µM | TGI [34]: 52.5 µM | TGI [35]: > 100 µM | TGI [36]: > 100 µM | TGI [37]: 43.9 µM | TGI [38]: 38.2 µM | TGI [39]: 51 µM | TGI [40]: 44.5 µM | TGI [41]: 57.7 µM | TGI [42]: 58.1 µM | TGI [43]: > 100 µM | TGI [44]: 50.5 µM | TGI [45]: > 100 µM | TGI [46]: 65.2 µM | TGI [47]: 70.5 µM | TGI [48]: 95.3 µM | TGI [49]: 48.9 µM | TGI [50]: > 100 µM

Cc1cc(OCC(=O)O)c(Cl)cc1Cl
TGI [51]: > 100 µM | TGI [52]: > 100 µM | TGI [1]: > 100 µM | TGI [2]: > 100 µM | TGI [4]: > 100 µM | TGI [5]: > 100 µM | TGI [6]: > 100 µM | TGI [8]: > 100 µM | TGI [9]: > 100 µM | TGI [10]: > 100 µM | TGI [11]: > 100 µM | TGI [12]: > 100 µM | TGI [13]: > 100 µM | TGI [14]: > 100 µM | TGI [15]: > 100 µM | TGI [16]: > 100 µM | TGI [17]: > 100 µM | TGI [53]: > 100 µM | TGI [18]: > 100 µM | TGI [19]: > 100 µM | TGI [54]: > 100 µM | TGI [20]: > 100 µM | TGI [21]: > 100 µM | TGI [55]: > 100 µM | TGI [22]: > 100 µM | TGI [23]: > 100 µM | TGI [24]: > 100 µM | TGI [25]: > 100 µM | TGI [26]: > 100 µM | TGI [56]: > 100 µM | TGI [27]: > 100 µM | TGI [28]: > 100 µM | TGI [29]: > 100 µM | TGI [57]: > 100 µM | TGI [32]: > 100 µM | TGI [33]: > 100 µM | TGI [34]: > 100 µM | TGI [35]: > 100 µM | TGI [36]: > 100 µM | TGI [37]: > 100 µM | TGI [38]: > 100 µM | TGI [39]: > 100 µM | TGI [40]: > 100 µM | TGI [41]: > 100 µM | TGI [42]: > 100 µM | TGI [43]: > 100 µM | TGI [44]: > 100 µM | TGI [45]: > 100 µM | TGI [46]: > 100 µM | TGI [48]: > 100 µM | TGI [58]: > 100 µM | TGI [49]: > 100 µM | TGI [50]: > 100 µM
